Assays:
[1] = biological target: T1, Plasmodium falciparum lysyl t-RNA synthetase (Pf-KRS1) (Plasmodium falciparum, UniProt Q8IDJ8); assay: Pf-KRS1 inhibition biochemical assay (Kinase-Glo, ATP depletion); details: read-out: Pf-KRS pIC50 (converted)
T1 construct: Pf KRS1-; made in house; host or cells: E. coli BL21 (DE3)
From the text: Plasmodium falciparum Lysine tRNA Synthetase (KRS1) Biochemical Assay Methodology.
Lysine tRNA Synthetase (KRS1) is an enzyme which catalyses the esterification of L-Lysine to the appropriate transfer ribonucleic acid (tRNA), to form an aminoacyl-tRNA. Once the tRNA is charged, a ribosome transfers the amino acid from the tRNA onto a growing peptide, according to the genetic code.
The substrates of this reaction are L-lysine, and adenosine triphosphate (ATP), the overall reaction is: amino acid+tRNA+ATP→aminoacyl-tRNA+AMP+PPi
In this overall reaction AMP is adenosine monophosphate and PP; is inorganic pyrophosphate. The reaction progression in a biochemical assay can be tracked by the depletion of one of the substrates, in the case of this invention, ATP. This was done using the proprietary assay kit, Kinase Glo® Assay which is a luminescent kinase assay platform suitable for monitoring kinase activities using up to 10 μm ATP which is commercially available from the Promega Corporation of Madison, Wis., USA. The Kinase-Glo® Assay was performed in a single well of a multiwell plate by adding a volume of Kinase-Glo® Reagent equal to the volume of a completed kinase reaction and measuring luminescence. The resulting luminescent signal is correlated with the amount of ATP present and is inversely correlated with the amount of kinase activity. As such by use of this assay methodology a reduction of the luminescent signal is relative to the reduction in ATP as the reaction progresses. A compound which inhibits the action of KRS will show no drop in the luminescent signal from assay controls.
Assays were performed using both Plasmodium falciparum and human KRS to assess any selectivity of various test compounds.
Test compounds were solubilized in DMSO at a top concentration of 10 mM and serially diluted 1 in 3 to achieve a range of final assay concentrations of 50 μM to 2.5 nM in 10 μl reaction volume.
KRS was diluted to a working concentration of 75 nM in assay buffer (25 mM HEPES, 25 mM KOH, 10 mM MgCl2.6H2O, 50 mM KCl), and the following ‘Master Mix’ prepared in assay buffer: 0.1 mg/ml BSA, 250 μM DTT, 200 μM Spermine, 0.05% NP-40, ATP 3 μM for Pf KRS1 (4 μM for Hs KRS1), 0.4 mg/ml tRNA from Yeast, 60 μM L-Lysine, 0.5 U/ml Pyrophosphatase.
Plates were incubated at room temperature for 5 h for Pf KRS (2.5 hrs for HsKRS), then the assay stopped by the addition of 10 μl of The Kinase-Glo® Reagent Assay was performed in a single well of a multiwell plate by adding a volume of Kinase-Glo® Reagent which is commercially available from the Promega Corporation of Madison, Wis., USA. The plates were incubated in the dark for a further 15 mins before being read for luminescence on a BMG PHERAstar® FSX plate reader which is a multi-mode reader for use in high-throughput screening available from BMG Labtech if Cary, N.C., USA. Data were analysed by calculating the percentage inhibition compared to the maximum and minimum assay controls. Concentration effect curves were fitted using nonlinear regression within ActivityBase and IC50 values were determined using standard protocols.

[2] = tested on: Plasmodium falciparum strain 3D7; assay: Plasmodium falciparum 3D7 in vitro growth inhibition (SYBRgreen I); assay type: cell-based; details: Plasmodium falciparum, 3D7; read-out: pEC50 for Pf 3D7 (converted)
Protocol: Parasite Cultures and Cytotoxicity Assay Methodology for Plasmodium falciparum. […] Growth inhibition of the Plasmodium falciparum cultures was quantified in a 10-point dose response curve with a 1 in 3 dilution series from a top assay concentration of 50 μM. This 384 well plate based fluorescence assay utilises the binding of SYBRgreen I (Thermo Fisher Scientific/Invitrogen cat. no. S7585) to double stranded DNA, which greatly increases the fluorescent signal at 528 nm after excitation at 485 nm. Mefloquine was used as a drug control to monitor the quality of the assay (Z′=0.6 to 0.8, where Z′ is a measure of the discrimination between the positive and negative controls on a screen plate). Dose-response curves were determined from a minimum of 3 independent experiments. Compound bioactivity was expressed as EC50, the effective concentration of compound causing 50% parasite death.

Cryptosporidium parvum = assay: In vitro Crytosporidium inhibition assay; assay type: cell-based; details: Cryptosporidium parvum; read-out: Cryptosporidium parvum pEC50 (converted)
From the text: Assay Method for Measurement of In Vitro Inhibition of Crytosporidium.
These experiments were run in accordance with the method of Besssoff et. al. Antimicrob. Agents Chemother. 2013, 57:1804-1814. Results from these experiments are provided in the Experimental Results hereinafter.

Trypanosoma cruzi = Trypanosoma cruzi intracellular imaging assay; assay type: cell-based; details: read-out: Trypanosoma cruzi pEC50 (converted)
From the text: Assay Method for Measurement of In Vitro Inhibition of Trypanosoma cruzi. […] These experiments were run in accordance with the method of Pena et. al., Scientific Reports 5, Article number: 8771 (2015). Results from these experiments are provided in the Experimental Results hereinafter.

Hep G2 = Hep G2 in-vitro cytotoxicity assay; assay type: cell-based; details: Homo sapiens, HepG2, read-out: Hs HEPG2 pEC50 (converted)
From the text: In-vitro cytotoxicity studies can be carried out using Hep G2 (Human hepatocyte carcinoma, HPACC cat. no. 85011430) used as indicators for general mammalian cell toxicity. Hep G2 in-vitro cytotoxicity can be assessed using the assay procedure as described in “Use of a human-derived liver cell line for the detection of cytoprotective, antigenotoxic and cogenotoxic agents”, Volker Mersch-Sundermann, Siegfried Knasmüller, Xin-jiang Wu, Firouz Darroudi, Fekadu Kassie. J. Tox 198 (2004) 329-340) the contents of which are incorporated herein by reference.

Leishmania donovani [3] = assay: Leishmania donovani intramacrophage inhibition assay (Ld-INMAC); assay type: cell-based; details: intramacrophage amastigotes in THP-1 cells, read-out: Ld-INMAC pEC50 (converted)
Protocol: Assay Method for Measurement of In Vitro Inhibition of Leishmania donovani.
These experiments were run in accordance with the method as detailed herein and results from these experiments are provided in the Experimental Results hereinafter.
The intramacrophage Leishmania assay was performed as described in de Rycker et al (Antimicrob Agents Chemother, 2013 July; 57(7):2913-22. doi: 10.1128/AAC.02398-12). Briefly, 1 μl of compound was pre-dispensed into 384 well sterile intermediary plates. For single point screening, amphotericin B was added to all wells of column 24 as a positive control (final concentration 2 μM) and DMSO to column 23. For potency determinations, ten-point, one in three dilution curves were created with the highest concentration being 50 μM and on each plate a control curve of amphotericin B was included. Controls were as follows: columns 11 and 12: DMSO, columns 23 and 24: amphotericin B (final concentration 2 μM). To the intermediary plates, 100 μl of THP-1 media was added and plates were shaken for >5 min to ensure complete mixing. THP-1 cells (8,000 per well, 50 μl) were plated into black clear-bottom 384 well plates (Corning) in presence of 10 nM PMA. After 20 min at room temperature, the plates were incubated at 37° C. under 5% CO2 in a humidified incubator for 75 h. The cells were then washed with […] sterile phosphate buffered saline (PBS) supplemented with 1 mM CaCl2, 0.5 mM MgCl2, 0.1% (w/v) bovine serum albumin (PBS-A) and amastigotes were added to all wells at a multiplicity of infection of 5 (40,000 amastigotes per well). After 40 min at room temperature, plates were returned to the incubator. Amastigotes were incubated in the presence of macrophages for 16 h. Any remaining extracellular amastigotes were subsequently removed with an overflow wash of 1 ml PBS-A per well (wash buffer is being aspirated from the top of the well as it is being dispensed) followed by addition of 25 μl of the compound pre-dilutions using a Matrix Hydra DT pipetting station. The final dilution of each compound was 200-fold. Plates were incubated for 72 h and then washed (250 μl PBS-A) and fixed (4% (v/v) formaldehyde-PBS, 30 min, room temperature). After fixation, the wells were washed with 250 μl PBS, stained (10 μg/ml DAPI, 0.4 μg ml-1 HCS Cellmask Deep Red in PBS+0.1% (v/v) Triton X-100, 30 min, room temperature) and washed with 250 μl PBS. Finally, PBS+0.05% (v/v) thimerosal was added to the wells, the plates were sealed and imaged on a high-content microscope (GE IN Cell 1000 or GE IN Cell 2000) using a 10× objective. Image analysis was carried out with GE IN Cell Analyzer 1000 Workstation using the “Multi Target Analysis” module. […]

THP-1 cells = assay: THP-1 host cell count in intramacrophage Leishmania assay; assay type: cell-based; details: Homo sapiens, host cell toxicity, read-out: THP1 pEC50 (converted)
Protocol: The intramacrophage Leishmania assay was performed as described in de Rycker et al (Antimicrob Agents Chemother, 2013 July; 57(7):2913-22. doi: 10.1128/AAC.02398-12). Briefly, 1 μl of compound was pre-dispensed into 384 well sterile intermediary plates. For single point screening, amphotericin B was added to all wells of column 24 as a positive control (final concentration 2 μM) and DMSO to column 23. For potency determinations, ten-point, one in three dilution curves were created with the highest concentration being 50 μM and on each plate a control curve of amphotericin B was included. Controls were as follows: columns 11 and 12: DMSO, columns 23 and 24: amphotericin B (final concentration 2 μM). To the intermediary plates, 100 μl of THP-1 media was added and plates were shaken for >5 min to ensure complete mixing. THP-1 cells (8,000 per well, 50 μl) were plated into black clear-bottom 384 well plates (Corning) in presence of 10 nM PMA. After 20 min at room temperature, the plates were incubated at 37° C. under 5% CO2 in a humidified incubator for 75 h. The cells were then washed with […] sterile phosphate buffered saline (PBS) supplemented with 1 mM CaCl2, 0.5 mM MgCl2, 0.1% (w/v) bovine serum albumin (PBS-A) and amastigotes were added to all wells at a multiplicity of infection of 5 (40,000 amastigotes per well). After 40 min at room temperature, plates were returned to the incubator. Amastigotes were incubated in the presence of macrophages for 16 h. Any remaining extracellular amastigotes were subsequently removed with an overflow wash of 1 ml PBS-A per well (wash buffer is being aspirated from the top of the well as it is being dispensed) followed by addition of 25 μl of the compound pre-dilutions using a Matrix Hydra DT pipetting station. The final dilution of each compound was 200-fold. Plates were incubated for 72 h and then washed (250 μl PBS-A) and fixed (4% (v/v) formaldehyde-PBS, 30 min, room temperature). After fixation, the wells were washed with 250 μl PBS, stained (10 μg/ml DAPI, 0.4 μg ml-1 HCS Cellmask Deep Red in PBS+0.1% (v/v) Triton X-100, 30 min, room temperature) and washed with 250 μl PBS. Finally, PBS+0.05% (v/v) thimerosal was added to the wells, the plates were sealed and imaged on a high-content microscope (GE IN Cell 1000 or GE IN Cell 2000) using a 10× objective. Image analysis was carried out with GE IN Cell Analyzer 1000 Workstation using the “Multi Target Analysis” module. Settings for segmentation were as follows: nuclei: minimum area: 142.384 μm^2, sensitivity: 81, method: top-hat; cells: characteristic area: 2500 μm^2, sensitivity: 60, method: multiscale top-hat; organelles (amastigotes): granule size 1-3, 3 scales, sensitivity: 90, detection in entire cell. […]

Leishmania donovani [4] = assay: Ld-cAxAm-TP-pMIC assay; assay type: cell-based; details: read-out: Ld-cAxAm-TP-pMIC pEC50 (converted)
[5] = biological target: T2, Mycobacterium tuberculosis lysyl t-RNA synthetase (Mtb KRS) (Mycobacterium tuberculosis, UniProt P9WFU9); assay: Mtb KRS inhibition biochemical assay (BioMol Green); details: read-out: Mtb KRS pIC50 (converted)
T2 construct: MtbKRS1-; made in house; host or cells: E. coli BL21 (DE3)
T2 sequence (P9WFU9 whole entry): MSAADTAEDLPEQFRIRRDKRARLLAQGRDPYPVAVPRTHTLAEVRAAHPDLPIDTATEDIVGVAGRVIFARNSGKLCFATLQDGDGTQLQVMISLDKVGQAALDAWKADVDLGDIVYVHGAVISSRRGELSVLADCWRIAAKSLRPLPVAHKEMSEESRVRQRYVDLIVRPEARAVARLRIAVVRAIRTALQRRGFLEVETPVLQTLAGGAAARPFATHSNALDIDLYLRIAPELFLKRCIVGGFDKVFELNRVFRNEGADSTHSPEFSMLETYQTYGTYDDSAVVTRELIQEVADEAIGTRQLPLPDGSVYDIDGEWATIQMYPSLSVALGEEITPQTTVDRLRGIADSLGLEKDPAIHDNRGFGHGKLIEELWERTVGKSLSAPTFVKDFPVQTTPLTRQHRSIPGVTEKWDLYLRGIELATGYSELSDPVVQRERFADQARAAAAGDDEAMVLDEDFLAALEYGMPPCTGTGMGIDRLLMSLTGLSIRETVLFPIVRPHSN

T1 sequence (Q8IDJ8 entry or part of it, looked up, natural form): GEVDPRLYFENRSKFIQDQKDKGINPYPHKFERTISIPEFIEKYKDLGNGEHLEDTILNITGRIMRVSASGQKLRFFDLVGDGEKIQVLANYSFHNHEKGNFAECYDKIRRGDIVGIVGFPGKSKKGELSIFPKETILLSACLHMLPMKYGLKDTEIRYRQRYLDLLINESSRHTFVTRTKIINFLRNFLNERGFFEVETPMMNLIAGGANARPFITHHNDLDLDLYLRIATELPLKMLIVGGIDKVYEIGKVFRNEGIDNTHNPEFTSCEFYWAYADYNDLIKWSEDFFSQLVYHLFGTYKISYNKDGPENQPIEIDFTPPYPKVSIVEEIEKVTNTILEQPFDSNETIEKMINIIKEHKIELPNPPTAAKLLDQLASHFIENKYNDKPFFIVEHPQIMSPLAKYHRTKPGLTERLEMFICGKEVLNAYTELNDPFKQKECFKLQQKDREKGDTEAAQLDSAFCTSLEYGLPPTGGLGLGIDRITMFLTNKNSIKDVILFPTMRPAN

SMILES	IC50 [1]	EC50 [2]	EC50 (Cryptosporidium parvum)	EC50 (Trypanosoma cruzi)	EC50 (Hep G2)	EC50 (Leishmania donovani [3])	EC50 (THP-1 cells)	EC50 (Leishmania donovani [4])	IC50 [5]
O=C(NCC1CCCCC1)c1cc(=O)c2cc(O)ccc2o1 [Example 6, N-(cyclohexylmethyl)-6-hydroxy-4-oxo-chromene-2-carboxamide]	63.1 nM	158 nM	126 nM	20 nM	15.8 µM	–	–	–	–
O=C(NCC1CCCCC1)c1cc(=O)c2cccc(O)c2o1 [Example 12, N-(cyclohexylmethyl)-8-hydroxy-4-oxo-chromene-2-carboxamide]	–	–	–	316 nM	25.1 µM	–	–	–	–
O=C(NCC1(O)CCCCC1)c1cc(=O)c2cc(O)ccc2o1 [Example 13, 6-hydroxy-N-[(1-hydroxycyclohexyl)methyl]-4-oxo-chromene-2-carboxamide]	79.4 nM	50.1 nM	120 nM	251 nM	20 µM	–	–	–	–
O=C(NCC1CCCCC1)c1cc(=O)c2cc(F)ccc2o1 [Example 31, N-(cyclohexylmethyl)-6-fluoro-4-oxo-chromene-2-carboxamide]	79.4 nM	316 nM	631 nM	126 nM	50.1 µM	–	–	–	–
O=C(NCC1(O)CCCCC1)c1cc(=O)c2cc(Cl)ccc2o1 [Example 48, 6-chloro-N-[(1-hydroxycyclohexyl)methyl]-4-oxo-chromene-2-carboxamide]	126 nM	398 nM	63.1 nM	–	31.6 µM	7.94 µM	> 50.1 µM	10 µM	–
O=C(NC1CCCCC1)c1cc(=O)c2cc(F)cc(O)c2o1 [Example 76B, N-cyclohexyl-6-fluoro-8-hydroxy-4-oxo-chromene-2-carboxamide]	398 nM	1580 nM	–	–	–	–	–	–	7.94 µM
O=C(NC1CCCC(F)(F)C1)c1cc(=O)c2cc(F)cc(O)c2o1 (stereo not shown) [Example 76C, N-(3,3-Difluorocyclohexyl)-6-fluoro-8-hydroxy-4-oxo-4H-chromene-2-carboxamide]	316 nM	1000 nM	2000 nM	–	50.1 µM	–	–	–	15.8 µM
O=C(NCC1CCC1)c1cc(=O)c2cc(F)cc(O)c2o1 [Example 76E, N-(cyclobutylmethyl)-6-fluoro-8-hydroxy-4-oxo-4H-chromene-2-carboxamide]	251 nM	794 nM	–	–	–	–	–	–	31.6 µM
CCC(C)CNC(=O)c1cc(=O)c2cc(F)cc(O)c2o1 (stereo not shown) [Example 76H, 6-fluoro-8-hydroxy-N-(2-methylbutyl)-4-oxo-chromene-2-carboxamide]	251 nM	251 nM	–	–	–	–	–	–	50.1 µM
O=C(NCC1(O)CCCCC1)c1cc(=O)c2cc(O)cc(F)c2o1 [Example 81, 8-fluoro-6-hydroxy-N-((1-hydroxycyclohexyl)methyl)-4-oxo-4H-chromene-2-carboxamide]	200 nM	–	126 nM	–	15.8 µM	20 µM	> 50.1 µM	6.31 µM	–
Nc1cccc2c(=O)cc(C(=O)NCC3CCCCC3)oc12 [Example 83, 8-Amino-N-(cyclohexylmethyl)-4-oxo-4H-chromene-2-carboxamide]	50.1 nM	20 nM	–	158 nM	7.94 µM	–	–	–	–
Nc1cc(F)cc2c(=O)cc(C(=O)NCC3CCC(F)(F)C3)oc12 (stereo not shown) [Example 95, 8-amino-N-[(3,3-difluorocyclopentyl)methyl]-6-fluoro-4-oxo-4H-chromene-2-carboxamide]	–	50.1 nM	–	63.1 nM	–	–	–	–	–
Nc1cc(F)cc2c(=O)cc(C(=O)NCC3CCCCC3)oc12 [Example 99, 8-amino-N-(cyclohexylmethyl)-6-fluoro-4-oxo-chromene-2-carboxamide]	50.1 nM	10 nM	15.8 nM	25.1 nM	5.01 µM	–	–	–	–

Reference: patent US11485720B2, “Anti-infective agents” (University of Dundee, priority 2016, dated 2022)
